Measurements reported in paper PMC8767159, “Multiparameter Optimization of Trypanocidal Cruzain Inhibitors With In Vivo Activity and Favorable Pharmacokinetics” (Frontiers in Pharmacology, 2022).
Where two headings read alike, the source gives them in different places.

Legend:
[1] = Cytotoxicity MTS assay in HFF-1 fibroblasts; type: cell-based; details: human HFF-1 fibroblasts
Method: The synthesized compounds were evaluated for their cytotoxicity against HFF-1 cells using the MTS assay (Promega, Madison, WI) ([Barltrop et al., 1991]) as previously described ([Ferreira et al., 2019]). HFF-1 fibroblasts were plated at 2 × 10^3/well in 96-well culture plates in RPMI 1640 without phenol red enriched with 10% FCS and incubated overnight at 37°C and 5% CO2. Next, 7 concentrations (0.1–100 µM) of the compounds were added in 3-fold serial dilutions, each concentration in triplicate, and the plates were incubated for 72 h at 37°C and 5% CO2. Next, 20 µl of MTS was added to each well, and the plates were incubated for an additional 4 h at 37°C and 5% CO2. The absorbance was measured at 490 nm using a spectrophotometer, and the data were transferred to SigmaPlot 10.0 (Systat Software Inc., Erkrath, Germany) to determine the IC50 values. Doxorubicin (Sigma–Aldrich) was used as a positive control, and untreated wells (100% growth) were used as negative controls in all plates. All compounds were tested in two independent assays.

[2] = In vitro metabolic stability in mouse liver microsomes; type: in vitro ADME; details: mouse, liver microsomes
How it was run: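 Compounds incubated at 37°C with mouse or human liver microsomes (0.25 mg/ml) in potassium phosphate buffer with NADPH; samples quenched in ACN/MeOH at 0, 5, 10, 15, 20 and 30 min. Parent remaining by LC-MS/MS relative to 0 min; T½ = ln(2)/k, CLint = k*1000/0.25 (μL/min/mg).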

[3] = In vivo pharmacokinetics in male CD1 mice; parameters: species or system mouse; details: for clearance: plasma clearance, read-out: CLp (L/h/kg) IV (converted); for C0 / AUC / half-life / Vd / Cmax / Tmax / bioavailability: plasma; for bioavailability: oral bioavailability
Method: The in vivo pharmacokinetic profiles of the compounds were determined using male CD1 mice weighing […] ([Davies and Morris, 1993]; [Liu and Jia, 2007]). The compounds were administered in a single dose orally (0.5 mg/kg) and intravenously (0.5 mg/kg). Stock solutions of the compounds in DMSO were diluted in Tween 80, PEG-400, and D5W (5% dextrose in water) at a ratio of 2:5:20:73 (v/v). The injection volume was 10 ml/kg. The remaining plasma concentration was monitored over time by LC-MS/MS by collecting blood samples (40 μl) at 10, 25, and 50 min and 1, 3, 6, 9, 12, and 24 h after administration of the compound.
For the biotransformation experiments and analysis of metabolites in microsomes, an Ultra-High-Pressure Liquid Chromatography instrument (UHPLC, Thermo Accela, Waltham, MA) ([Spaggiari et al., 2014]) connected to an automatic sample injector and a 1250 series pump was used. The UHPLC system was connected to a Thermo Fisher (Waltham, MA) LTQ Orbitrap mass spectrometer. For all other analyses, an AB Sciex Triple Quad 5500 coupled to a UHPLC equipped with a UV 1290 diode detector (Agilent Technologies, Santa Clara, CA) and a CTC PAL self-collecting system (LEAP Technologies, Carrboro, NC) was used. Q1 MS positive ion mode (300–500 Da) was used to detect the ions of the parent compounds. The UV detector was operated in spectral mode (250–280 nm). A Hypersil Gold C18 (2.1 mm × 100 mm, 1.9 µm, Thermo Fisher) HPLC column was used. The mobile phases were solvent A (0.1% formic acid in water) and solvent B (0.1% formic acid in ACN). The flow was adjusted to 0.55 ml/min, and the injection volume was adjusted to […]. The gradient started with 1% solvent B for 0.4 min, reached 40% (solvent B) in 2.3 min and 95% (solvent B) in 0.67 min, was maintained for 0.5 min, and returned to the initial condition of 1%. This condition was maintained for 1 min before injection of the next sample. The peak area ratio (peak area of the test compounds/peak area of the control compounds) was converted to the percentage of remaining compound, with the 0 min time point ratio set to 100%. T½ and CLint were calculated from the percentage of remaining compound versus the incubation time. From the resulting function, the slope (k) was determined. The equations T1/2 (min) = ln(2)/k and CLint in vitro (μL/min/mg) = k*1000/0.25 were used to determine T½ and CLint.

[4] = male, CD1, mouse, 0.5 mg/kg, Table S6, IV, mice
[5] = male, CD1, mouse, 0.5 mg/kg, Table S6, PO, mice
[6] = Table 5, CLint/fu, read-out: CLint_u (L/h/kg) mouse (converted)
[7] = Table 5, read-out: CLint (L/h/kg) mouse (converted)
[8] = Table 6, plasma clearance corrected for the fraction unbound, IV
[9] = mouse, 0.5 mg/kg, Table 6, male CD1 mice
[10] = mouse, Table 6, IV 0.5 mg/kg, male CD1 mice
[11] = mouse, Table 6, IV 0.5 mg/kg, male CD1 mice, read-out: AUC (ng*h/ml) IV
[12] = mouse, Table 6, IV 0.5 mg/kg, male CD1 mice, read-out: T1/2 (h) IV (converted)
[13] = mouse, Table 6, IV 0.5 mg/kg, male CD1 mice, read-out: V SS (L/kg) IV
[14] = mouse, Table 6, PO 0.5 mg/kg, male CD1 mice
[15] = mouse, Table 6, PO 0.5 mg/kg, male CD1 mice, read-out: AUC (ng*h/ml) PO
[16] = mouse, Table 6, PO 0.5 mg/kg, male CD1 mice, read-out: T1/2 (h) PO (converted)

| SMILES | IC50 at 72 h [1] | CLint scaled at 5 µM [2, 6] | CLint scaled at 5 µM [2, 7] | CLpu [3, 8] | bioavailability [3, 9] | C0 [3, 10] | AUC [3, 11] | half-life [3, 12] | Vd [3, 13] | Tmax [3, 14] | AUC [3, 15] | clearance [3, 10] | Cmax [3, 14] | half-life [3, 16] | also measured |
| --- | --- | --- | --- | --- | --- | --- | --- | --- | --- | --- | --- | --- | --- | --- | --- |
| NC(=O)Cn1c(CCNC(=O)COc2ccccc2)nc2ccccc21 [Compound 28] | > 100 µM | – | – | – | – | – | – | – | – | – | – | – | – | – | CLint scaled at 5 µM ([2]; Table S5, CLint/fu, read-out: CLint_u (L/h/kg) Mouse (converted)): 5.43 L/h/kg; CLint scaled at 5 µM ([2]; Table S5, read-out: CLint (L/h/kg) Mouse (converted)): 5.34 L/h/kg; CLpu ([3]; Table S6, plasma clearance corrected for the fraction unbound): 66.3 mL/min/kg; clearance [3, 4]: 0.73 L/h/kg; C0 [3, 4]: 1930 ng/mL; AUC ([3]; male, CD1, mouse, 0.5 mg/kg, Table S6, IV, mice, read-out: AUC (ng*h/mL) IV): 1420 ng·h/mL; half-life ([3]; male, CD1, mouse, 0.5 mg/kg, Table S6, IV, mice, read-out: T1/2(h) IV (converted)): 0.52 h; Vd ([3]; male, CD1, mouse, 0.5 mg/kg, Table S6, IV, mice, read-out: VSS (L/kg) IV): 0.43 L/kg; Cmax [3, 5]: 275 ng/mL; Tmax [3, 5]: 30.6 min; AUC ([3]; male, CD1, mouse, 0.5 mg/kg, Table S6, PO, mice, read-out: AUC (ng*h/mL) PO): 499 ng·h/mL; half-life ([3]; male, CD1, mouse, 0.5 mg/kg, Table S6, PO, mice, read-out: T1/2 (h) PO (converted)): 0.82 h; bioavailability ([3]; male, CD1, mouse, 0.5 mg/kg, Table S6, mice): 35% |
| O=C(COc1ccccc1[N+](=O)[O-])NCCc1nc2ccccc2[nH]1 [Compound 32] | > 100 µM | 808 L/h/kg | 526 L/h/kg | 2623 mL/min/kg | 1.9% | 220 ng/mL | 53 ng·h/mL | 0.2 h | 2.5 L/kg | 18 min | 1 ng·h/mL | 5.9 L/h/kg | – | – | – |
| O=C(COc1ccc(Br)cc1)NCCc1nc2ccccc2[nH]1 [Compound 33] | > 100 µM | 193 L/h/kg | 161 L/h/kg | 1010 mL/min/kg | 35.2% | 658 ng/mL | 160 ng·h/mL | 0.2 h | 0.6 L/kg | 18 min | 56.5 ng·h/mL | 9.5 L/h/kg | 71.7 ng/mL | 0.4 h | – |
| O=C(COc1ccc2ccccc2c1Br)NCCc1nc2ccccc2[nH]1 [Compound 34] | > 30 µM | – | 607 L/h/kg | – | 5.6% | 255 ng/mL | 116 ng·h/mL | 0.3 h | 1.9 L/kg | 18 min | 6.5 ng·h/mL | 7.6 L/h/kg | 7.6 ng/mL | 0.6 h | CLpu (L/h/kg) [3, 8]: 2,874.7 L/h/kg |
| O=C(COc1ccc2ccccc2c1)NCCc1nc2ccccc2[nH]1 [Compound 35] | > 100 µM | 1170 L/h/kg | 565 L/h/kg | 5577 mL/min/kg | 2% | 228 ng/mL | 86 ng·h/mL | 0.2 h | 2 L/kg | 18 min | 1.7 ng·h/mL | 5.8 L/h/kg | 3.7 ng/mL | 0.2 h | – |
| Cc1ccccc1OCC(=O)NCCc1nc2ccccc2o1 [Compound 37] | > 100 µM | 874 L/h/kg | 745 L/h/kg | 3118 mL/min/kg | – | 169 ng/mL | 53 ng·h/mL | 0.2 h | 2.4 L/kg | 18 min | – | 9.5 L/h/kg | 14.6 ng/mL | – | – |
| C=CCCn1c(CCNC(=O)COc2ccccc2Cl)nc2ccccc21 [Compound 38] | > 100 µM | 2030 L/h/kg | 934 L/h/kg | 7175 mL/min/kg | – | 126 ng/mL | 82 ng·h/mL | 0.4 h | 3.3 L/kg | 18 min | – | 6.2 L/h/kg | 2.5 ng/mL | – | – |
